What was measured:
Adenosine receptor A1 = molecular target: T1, Adenosine receptor A1 (Homo sapiens, UniProt P30542)
T1 sequence (P30542 whole entry): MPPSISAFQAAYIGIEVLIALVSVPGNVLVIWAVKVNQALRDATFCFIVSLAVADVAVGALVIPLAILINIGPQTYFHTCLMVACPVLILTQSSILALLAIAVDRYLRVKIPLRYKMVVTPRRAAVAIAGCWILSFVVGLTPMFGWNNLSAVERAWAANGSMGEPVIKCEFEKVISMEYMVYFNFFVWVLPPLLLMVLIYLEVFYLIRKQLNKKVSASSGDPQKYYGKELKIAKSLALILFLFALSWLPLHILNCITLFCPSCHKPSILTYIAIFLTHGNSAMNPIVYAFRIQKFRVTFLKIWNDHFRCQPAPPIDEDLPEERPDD

Mu-type opioid receptor = Mu-type opioid receptor (Homo sapiens, UniProt P35372); test: biochemical; format: functional
Chain of Mu-type opioid receptor (P35372 whole entry): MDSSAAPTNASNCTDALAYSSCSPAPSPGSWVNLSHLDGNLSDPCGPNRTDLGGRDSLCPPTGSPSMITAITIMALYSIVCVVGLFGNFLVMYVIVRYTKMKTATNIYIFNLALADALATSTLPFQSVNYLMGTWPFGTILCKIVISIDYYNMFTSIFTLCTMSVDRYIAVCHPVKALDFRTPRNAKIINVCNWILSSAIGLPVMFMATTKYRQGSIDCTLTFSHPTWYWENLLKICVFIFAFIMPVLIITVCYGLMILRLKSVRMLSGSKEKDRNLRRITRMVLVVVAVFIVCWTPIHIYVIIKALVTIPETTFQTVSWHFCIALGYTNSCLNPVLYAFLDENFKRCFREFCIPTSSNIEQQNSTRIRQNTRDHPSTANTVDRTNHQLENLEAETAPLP

Glucocorticoid receptor = molecular target: T2, Glucocorticoid receptor (Homo sapiens, UniProt P04150)
T2 sequence (P04150 whole entry): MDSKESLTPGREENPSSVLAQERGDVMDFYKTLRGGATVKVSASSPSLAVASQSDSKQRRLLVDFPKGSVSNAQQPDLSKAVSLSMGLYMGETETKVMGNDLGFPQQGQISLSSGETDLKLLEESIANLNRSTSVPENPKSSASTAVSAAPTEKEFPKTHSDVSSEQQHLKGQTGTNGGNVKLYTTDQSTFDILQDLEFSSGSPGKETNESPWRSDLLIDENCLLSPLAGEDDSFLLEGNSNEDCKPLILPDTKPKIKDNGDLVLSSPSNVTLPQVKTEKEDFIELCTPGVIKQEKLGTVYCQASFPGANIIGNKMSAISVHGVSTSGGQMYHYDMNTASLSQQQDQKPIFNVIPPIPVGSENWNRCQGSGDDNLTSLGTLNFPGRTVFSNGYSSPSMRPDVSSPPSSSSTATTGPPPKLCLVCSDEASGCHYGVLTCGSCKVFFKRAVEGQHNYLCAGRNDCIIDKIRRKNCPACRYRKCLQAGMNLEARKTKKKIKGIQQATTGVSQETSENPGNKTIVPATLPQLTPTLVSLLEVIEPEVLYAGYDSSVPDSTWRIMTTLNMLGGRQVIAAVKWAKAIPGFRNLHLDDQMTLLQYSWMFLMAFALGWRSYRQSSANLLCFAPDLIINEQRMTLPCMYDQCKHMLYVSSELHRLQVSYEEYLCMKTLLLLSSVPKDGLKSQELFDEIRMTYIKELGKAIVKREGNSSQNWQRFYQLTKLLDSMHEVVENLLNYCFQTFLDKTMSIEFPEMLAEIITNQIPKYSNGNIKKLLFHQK

[1] = molecular target: 5-hydroxytryptamine receptor 2B (Homo sapiens, UniProt P41595)
Chain of 5-hydroxytryptamine receptor 2B (P41595 whole entry): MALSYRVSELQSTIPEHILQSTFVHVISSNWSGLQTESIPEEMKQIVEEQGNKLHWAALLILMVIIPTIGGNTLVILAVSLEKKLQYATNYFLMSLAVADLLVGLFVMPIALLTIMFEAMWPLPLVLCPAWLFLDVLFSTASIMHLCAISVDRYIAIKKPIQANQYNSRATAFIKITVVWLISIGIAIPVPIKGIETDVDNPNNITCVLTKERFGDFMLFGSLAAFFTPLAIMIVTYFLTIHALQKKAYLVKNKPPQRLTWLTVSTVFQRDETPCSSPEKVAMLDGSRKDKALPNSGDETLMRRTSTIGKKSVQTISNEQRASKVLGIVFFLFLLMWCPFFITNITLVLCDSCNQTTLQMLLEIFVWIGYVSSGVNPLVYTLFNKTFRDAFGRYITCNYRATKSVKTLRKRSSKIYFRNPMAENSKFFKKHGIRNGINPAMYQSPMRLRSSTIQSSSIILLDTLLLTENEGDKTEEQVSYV

[2] = molecular target: T3, Neuropeptide Y receptor type 2 (Homo sapiens, UniProt P49146)
T3 sequence (P49146 whole entry): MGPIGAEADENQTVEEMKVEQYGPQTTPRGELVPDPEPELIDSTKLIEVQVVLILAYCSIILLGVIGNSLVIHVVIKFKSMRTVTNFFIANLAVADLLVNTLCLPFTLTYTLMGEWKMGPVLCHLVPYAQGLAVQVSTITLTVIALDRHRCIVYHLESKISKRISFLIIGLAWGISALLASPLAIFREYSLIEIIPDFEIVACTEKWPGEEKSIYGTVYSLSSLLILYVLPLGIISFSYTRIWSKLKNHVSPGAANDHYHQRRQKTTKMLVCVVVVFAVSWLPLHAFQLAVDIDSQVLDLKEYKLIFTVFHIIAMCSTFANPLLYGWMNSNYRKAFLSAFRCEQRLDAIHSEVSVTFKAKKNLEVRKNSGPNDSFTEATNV

Substance-P receptor = Substance-P receptor (Homo sapiens, UniProt P25103)
Chain of Substance-P receptor (P25103 whole entry): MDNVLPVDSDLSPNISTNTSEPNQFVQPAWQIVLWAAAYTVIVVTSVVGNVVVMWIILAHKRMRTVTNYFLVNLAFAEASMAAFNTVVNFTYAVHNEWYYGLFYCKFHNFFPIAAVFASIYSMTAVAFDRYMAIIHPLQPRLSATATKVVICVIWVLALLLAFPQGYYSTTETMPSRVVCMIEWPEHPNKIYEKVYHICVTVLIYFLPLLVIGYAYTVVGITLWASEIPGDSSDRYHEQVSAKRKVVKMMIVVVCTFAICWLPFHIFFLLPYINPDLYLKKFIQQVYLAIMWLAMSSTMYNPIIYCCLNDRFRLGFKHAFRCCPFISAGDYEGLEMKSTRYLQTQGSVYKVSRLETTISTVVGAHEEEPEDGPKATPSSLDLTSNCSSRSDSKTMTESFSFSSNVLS

[3] = molecular target: Beta-3 adrenergic receptor (Homo sapiens, UniProt P13945)
Chain of Beta-3 adrenergic receptor (P13945 whole entry): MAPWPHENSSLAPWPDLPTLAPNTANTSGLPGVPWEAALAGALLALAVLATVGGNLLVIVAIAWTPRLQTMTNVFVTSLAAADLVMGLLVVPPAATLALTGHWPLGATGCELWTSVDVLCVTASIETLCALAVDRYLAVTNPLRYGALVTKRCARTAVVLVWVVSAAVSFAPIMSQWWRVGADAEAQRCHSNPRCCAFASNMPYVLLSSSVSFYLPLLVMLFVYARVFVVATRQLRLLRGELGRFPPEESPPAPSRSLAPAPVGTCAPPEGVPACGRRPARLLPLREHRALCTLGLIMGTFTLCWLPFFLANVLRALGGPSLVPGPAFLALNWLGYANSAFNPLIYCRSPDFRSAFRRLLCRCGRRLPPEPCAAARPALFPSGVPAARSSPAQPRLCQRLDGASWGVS

B1 bradykinin receptor = molecular target: T4, B1 bradykinin receptor (Homo sapiens, UniProt P46663)
T4 sequence (P46663 whole entry): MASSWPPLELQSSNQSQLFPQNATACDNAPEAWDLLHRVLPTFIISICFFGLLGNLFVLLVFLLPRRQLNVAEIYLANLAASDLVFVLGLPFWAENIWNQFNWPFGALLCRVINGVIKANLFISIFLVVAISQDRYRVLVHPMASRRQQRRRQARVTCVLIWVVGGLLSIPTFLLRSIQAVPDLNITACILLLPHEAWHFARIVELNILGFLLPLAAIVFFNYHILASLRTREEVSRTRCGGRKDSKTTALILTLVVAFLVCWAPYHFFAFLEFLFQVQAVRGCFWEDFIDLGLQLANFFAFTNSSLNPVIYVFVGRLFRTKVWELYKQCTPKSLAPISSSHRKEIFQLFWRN

[4] = molecular target: T5, Peroxisome proliferator-activated receptor gamma (Homo sapiens, UniProt P37231); format: functional
T5 sequence (P37231 whole entry): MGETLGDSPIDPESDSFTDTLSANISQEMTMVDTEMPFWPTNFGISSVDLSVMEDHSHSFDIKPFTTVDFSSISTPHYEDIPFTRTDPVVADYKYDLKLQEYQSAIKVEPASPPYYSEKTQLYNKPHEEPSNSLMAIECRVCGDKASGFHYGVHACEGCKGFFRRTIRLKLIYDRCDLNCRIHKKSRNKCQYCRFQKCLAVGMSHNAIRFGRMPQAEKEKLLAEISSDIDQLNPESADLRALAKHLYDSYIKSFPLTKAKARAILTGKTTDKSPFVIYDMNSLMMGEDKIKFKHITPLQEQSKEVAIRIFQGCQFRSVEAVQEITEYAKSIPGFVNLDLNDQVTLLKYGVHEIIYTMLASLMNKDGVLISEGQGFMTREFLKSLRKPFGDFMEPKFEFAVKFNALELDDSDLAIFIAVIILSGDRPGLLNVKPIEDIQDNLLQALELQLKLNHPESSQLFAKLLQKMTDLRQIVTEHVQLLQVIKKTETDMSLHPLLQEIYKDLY

[5] = molecular target: T5, Peroxisome proliferator-activated receptor gamma; format: functional; remark: listed apart in the source
[6] = molecular target: Gamma-aminobutyric acid receptor subunit alpha-1/alpha-2/beta-2/gamma-2 (Homo sapiens, UniProt P14867+P18507+P47869+P47870); format: functional, cell-based
Chain of Gamma-aminobutyric acid receptor subunit alpha-1/alpha-2/beta-2/gamma-2 (P14867 whole entry): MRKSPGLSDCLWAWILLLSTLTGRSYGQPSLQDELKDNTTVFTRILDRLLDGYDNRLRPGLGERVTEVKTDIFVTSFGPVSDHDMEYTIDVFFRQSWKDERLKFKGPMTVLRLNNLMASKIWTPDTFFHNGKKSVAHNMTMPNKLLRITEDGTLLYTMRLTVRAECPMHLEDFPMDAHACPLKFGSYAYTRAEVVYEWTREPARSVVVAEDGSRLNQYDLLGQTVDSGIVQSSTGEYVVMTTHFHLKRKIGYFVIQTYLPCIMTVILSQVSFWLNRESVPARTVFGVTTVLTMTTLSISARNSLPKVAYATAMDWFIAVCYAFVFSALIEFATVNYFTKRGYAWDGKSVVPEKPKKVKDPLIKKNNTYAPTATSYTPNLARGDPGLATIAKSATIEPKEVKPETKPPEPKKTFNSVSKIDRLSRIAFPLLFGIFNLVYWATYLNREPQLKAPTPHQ
Chain of Gamma-aminobutyric acid receptor subunit alpha-1/alpha-2/beta-2/gamma-2 (P47870 whole entry): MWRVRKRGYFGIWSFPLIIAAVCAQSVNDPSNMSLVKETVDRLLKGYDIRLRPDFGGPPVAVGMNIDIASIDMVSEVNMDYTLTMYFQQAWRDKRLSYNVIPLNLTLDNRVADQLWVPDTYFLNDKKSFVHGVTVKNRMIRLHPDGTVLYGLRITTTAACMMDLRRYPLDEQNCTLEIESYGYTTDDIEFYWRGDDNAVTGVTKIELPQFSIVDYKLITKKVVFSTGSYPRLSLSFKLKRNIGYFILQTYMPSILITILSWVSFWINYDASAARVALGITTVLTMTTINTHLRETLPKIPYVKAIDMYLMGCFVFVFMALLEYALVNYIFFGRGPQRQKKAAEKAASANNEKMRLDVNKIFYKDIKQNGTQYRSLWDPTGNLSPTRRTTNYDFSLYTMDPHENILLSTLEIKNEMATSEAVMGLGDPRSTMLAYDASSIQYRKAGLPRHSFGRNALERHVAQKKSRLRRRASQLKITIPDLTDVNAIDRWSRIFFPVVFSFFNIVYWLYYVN
Chain of Gamma-aminobutyric acid receptor subunit alpha-1/alpha-2/beta-2/gamma-2 (P18507 whole entry): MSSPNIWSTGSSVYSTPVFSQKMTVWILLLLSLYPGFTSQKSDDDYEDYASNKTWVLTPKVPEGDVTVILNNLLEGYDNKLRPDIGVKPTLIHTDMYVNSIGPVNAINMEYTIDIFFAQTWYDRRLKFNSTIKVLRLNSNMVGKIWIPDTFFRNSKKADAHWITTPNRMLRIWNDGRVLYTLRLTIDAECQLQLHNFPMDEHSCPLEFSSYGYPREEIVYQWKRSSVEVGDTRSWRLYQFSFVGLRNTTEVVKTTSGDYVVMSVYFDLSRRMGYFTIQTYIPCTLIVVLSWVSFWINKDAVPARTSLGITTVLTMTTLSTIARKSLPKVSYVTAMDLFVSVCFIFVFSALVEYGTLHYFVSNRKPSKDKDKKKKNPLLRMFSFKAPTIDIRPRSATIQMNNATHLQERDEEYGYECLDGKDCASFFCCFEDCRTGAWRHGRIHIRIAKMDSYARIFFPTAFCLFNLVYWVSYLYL
Chain of Gamma-aminobutyric acid receptor subunit alpha-1/alpha-2/beta-2/gamma-2 (P47869 whole entry): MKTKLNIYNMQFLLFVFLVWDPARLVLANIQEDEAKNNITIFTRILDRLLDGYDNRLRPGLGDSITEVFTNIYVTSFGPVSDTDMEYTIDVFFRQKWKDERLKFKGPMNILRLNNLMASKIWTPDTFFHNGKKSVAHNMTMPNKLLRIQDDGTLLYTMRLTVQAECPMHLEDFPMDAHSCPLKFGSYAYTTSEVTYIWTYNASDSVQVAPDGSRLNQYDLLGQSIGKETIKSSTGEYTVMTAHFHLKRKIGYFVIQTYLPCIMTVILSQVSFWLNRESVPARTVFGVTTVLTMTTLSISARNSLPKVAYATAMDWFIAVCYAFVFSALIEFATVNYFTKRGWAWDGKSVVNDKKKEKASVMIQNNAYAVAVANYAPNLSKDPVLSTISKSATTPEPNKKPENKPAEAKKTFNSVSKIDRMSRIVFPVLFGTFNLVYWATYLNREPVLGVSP
Note: assay procedure not described here.

| SMILES | AC50 (Adenosine receptor A1) [µM] | AC50 (Mu-type opioid receptor) [µM] | AC50 (Glucocorticoid receptor) [µM] | other results |
| --- | --- | --- | --- | --- |
| N#Cc1ccc2c(c1)N(CCCN1CCC(O)CC1)c1ccccc1S2 [PERICIAZINE] | > 30 |  |  |  |
| O=C1CCc2cc(OCCCCc3nnnn3C3CCCCC3)ccc2N1 [CILOSTAZOL] |  | > 30 | > 30 |  |
| Nc1ccc(S(=O)(=O)Nc2nccs2)cc1 [SULFATHIAZOLE] |  |  | > 30 | AC50 [1]: > 10 µM; AC50 [2]: > 30 µM; AC50 (Substance-P receptor): > 10 µM; AC50 [3]: > 30 µM; AC50 (B1 bradykinin receptor): > 30 µM |
| COc1ccc(CC2c3cc(OC)c(OC)cc3CC[N+]2(C)CCC(=O)OCCCCCOC(=O)CC[N+]2(C)CCc3cc(OC)c(OC)cc3C2Cc2ccc(OC)c(OC)c2)cc1OC (stereo unspecified) |  | > 30 | > 30 |  |
| CC(=O)Oc1cc(C(F)(F)F)ccc1C(=O)O [TRIFLUSAL] | > 30 |  |  |  |
| CC(=O)O[C@]1(C(C)=O)CC[C@H]2[C@@H]3C=C(C)C4=CC(=O)CC[C@@H]4[C@H]3CC[C@@]21C [NOMEGESTROL ACETATE] | > 30 | > 30 | 0.067 |  |
| CC(S)C(=O)NCC(=O)O (stereo unspecified) [TIOPRONIN] |  |  |  | AC50 [4]: > 30 µM; AC50 [5]: > 30 µM; AC50 [6]: > 30 µM |
| O=C1C(CC[S+]([O-])c2ccccc2)C(=O)N(c2ccccc2)N1c1ccccc1 (stereo unspecified) [SULFINPYRAZONE] |  | > 30 | > 10 |  |
| C[C@@H](NCCCc1cccc(C(F)(F)F)c1)c1cccc2ccccc12 |  | 1.9 | > 30 | AC50 [6]: > 30 µM |
| C/C=C/C/C=C/CCC(=O)[C@H]1O[C@H]1C(N)=O [CERULENIN] | > 30 |  |  |  |
| C[C@H]1c2cccc(O)c2C(=O)C2=C(O)[C@]3(O)C(=O)C(C(N)=O)=C(O)[C@@H](N(C)C)[C@@H]3[C@@H](O)[C@@H]21 [DOXYCYCLINE] |  |  |  | AC50 [1]: > 10 µM; AC50 [2]: > 30 µM; AC50 (Substance-P receptor): > 10 µM; AC50 [3]: > 30 µM; AC50 (B1 bradykinin receptor): > 30 µM |
| CCc1nc(C(N)=O)c(Nc2ccc(N3CCC(N4CCN(C)CC4)CC3)c(OC)c2)nc1NC1CCOCC1 [GILTERITINIB] | > 30 |  |  |  |
| C[C@H](CCC(=O)O)[C@H]1CC[C@H]2[C@@H]3[C@@H](O)C[C@@H]4C[C@H](O)CC[C@]4(C)[C@H]3CC[C@]12C [URSODIOL] |  |  |  | AC50 [4]: > 30 µM; AC50 [5]: > 30 µM; AC50 [6]: > 30 µM |
| COc1cc2nc(N3CCN(C(=O)C4CCCO4)CC3)nc(N)c2cc1OC (stereo unspecified) [TERAZOSIN] | > 30 | > 30 | > 30 | AC50 [1]: > 10 µM; AC50 [2]: > 30 µM; AC50 (Substance-P receptor): > 10 µM; AC50 [3]: > 30 µM; AC50 (B1 bradykinin receptor): > 30 µM |
| CN(C)CCC[C@@]1(c2ccc(F)cc2)OCc2cc(C#N)ccc21 [ESCITALOPRAM] |  |  | > 30 | AC50 [6]: > 30 µM |
| O=C1CN(/N=C/c2ccc(-c3ccc([N+](=O)[O-])cc3)o2)C(O)=N1 [DANTROLENE] |  | > 30 | > 10 |  |
| C[C@]12C=CC(=O)N[C@@H]1CC[C@@H]1[C@@H]2CC[C@]2(C)[C@@H](C(=O)Nc3cc(C(F)(F)F)ccc3C(F)(F)F)CC[C@@H]12 [DUTASTERIDE] |  | > 30 | > 10 |  |
| C=C[C@H]1C[N@@]2CC[C@H]1C[C@@H]2[C@@H](O)c1ccnc2ccc(OC)cc12 [QUINIDINE] |  | > 30 |  | AC50 [1]: 2 µM |
| CC(C)N(CCC(C(N)=O)(c1ccccc1)c1ccccn1)C(C)C (stereo unspecified) [DISOPYRAMIDE] |  |  |  | AC50 [2]: > 30 µM; AC50 [3]: 8.37 µM; AC50 (B1 bradykinin receptor): > 30 µM |
| CN(C)CC[C@@H](c1ccc(Cl)cc1)c1ccccn1 [DEXCHLORPHENIRAMINE] |  | > 30 | > 30 |  |
| CC[C@H]1OC(=O)[C@H](C)C(=O)[C@H](C)[C@@H](O[C@@H]2O[C@H](C)C[C@H](N(C)C)[C@H]2O)[C@](C)(OC)C[C@@H](C)C(=O)[C@H](C)[C@H]2N(CCCCn3cnc(-c4cccnc4)c3)C(=O)O[C@]12C [TELITHROMYCIN] | > 30 |  |  |  |
| CC(N)C12CC3CC(CC(C3)C1)C2 (stereo unspecified) [RIMANTADINE] |  |  | > 10 |  |

Reference: ChEMBL document CHEMBL5291721, “A preclinical secondary pharmacology resource illuminates target-adverse drug reaction associations of marketed drugs” (Nat Commun, 2023)
